Data as given in patent US12435059B2, “AMP-activated protein kinase inhibitors and methods of making and using the same” (The Regents of the University of Colorado, priority 2019, dated 2025).

Key:
Assay in all cases: biochemical
Type in all cases: binding
468 kinases [1] = biological target: 468 kinases (Homo sapiens, UniProt P54756); settings: EPHA5; read-out: % Inhibition @ 100 nM
468 kinases [2] = biological target: 468 kinases (Homo sapiens, UniProt Q5S007); settings: LRRK2; read-out: % Inhibition @ 100 nM
468 kinases [3] = biological target: 468 kinases (Homo sapiens, UniProt Q16816); settings: PHKG1; read-out: % Inhibition @ 100 nM
468 kinases [4] = biological target: 468 kinases (Homo sapiens, UniProt P29376); settings: LTK; read-out: % Inhibition @ 100 nM
468 kinases [5] = biological target: 468 kinases (Homo sapiens, UniProt O94768); settings: DRAK2; read-out: % Inhibition @ 100 nM
468 kinases [6] = biological target: 468 kinases (Homo sapiens, UniProt Q8N568); settings: DCAMKL2; read-out: % Inhibition @ 100 nM
468 kinases [7] = biological target: 468 kinases (Homo sapiens, UniProt P19525); settings: PRKR; read-out: % Inhibition @ 100 nM
468 kinases [8] = biological target: 468 kinases (Homo sapiens, UniProt P06239); settings: LCK; read-out: % Inhibition @ 100 nM
468 kinases [9] = biological target: 468 kinases (Homo sapiens, UniProt P10721, D816V); settings: KIT(D816V); read-out: % Inhibition @ 100 nM
468 kinases [10] = biological target: 468 kinases (Homo sapiens, UniProt Q9H2G2); settings: SLK; read-out: % Inhibition @ 100 nM
468 kinases [11] = biological target: 468 kinases (Homo sapiens, UniProt Q7KZI7); settings: MARK2; read-out: % Inhibition @ 100 nM
468 kinases [12] = biological target: 468 kinases (Homo sapiens, UniProt O94804); settings: LOK; read-out: % Inhibition @ 100 nM
468 kinases [13] = biological target: 468 kinases (Homo sapiens, UniProt P28482); settings: ERK2; read-out: % Inhibition @ 100 nM
468 kinases [14] = biological target: 468 kinases (Homo sapiens, UniProt Q8IVW4); settings: CDKL3; read-out: % Inhibition @ 100 nM
468 kinases [15] = biological target: 468 kinases (Homo sapiens, UniProt Q7L7X3); settings: TAOK1; read-out: % Inhibition @ 100 nM
468 kinases [16] = biological target: 468 kinases (Homo sapiens, UniProt Q32MK0); settings: MLCK; read-out: % Inhibition @ 100 nM
468 kinases [17] = biological target: 468 kinases (Homo sapiens, UniProt Q13177); settings: PAK2; read-out: % Inhibition @ 100 nM
468 kinases [18] = biological target: 468 kinases (Homo sapiens, UniProt P36888, D835H); settings: FLT3(D835H); read-out: % Inhibition @ 100 nM
468 kinases [19] = biological target: 468 kinases (Homo sapiens, UniProt Q02156); settings: PRKCE; read-out: % Inhibition @ 100 nM
468 kinases [20] = biological target: 468 kinases (Homo sapiens, UniProt O75747); settings: PIK3C2G; read-out: % Inhibition @ 100 nM
468 kinases [21] = biological target: 468 kinases (Homo sapiens, UniProt O14936); settings: CASK; read-out: % Inhibition @ 100 nM
468 kinases [22] = biological target: 468 kinases (Homo sapiens, UniProt Q8NI60); settings: ADCK3; read-out: % Inhibition @ 100 nM
468 kinases [23] = biological target: 468 kinases (Homo sapiens, UniProt Q96Q40); settings: PFTAIRE2; read-out: % Inhibition @ 100 nM
468 kinases [24] = biological target: 468 kinases (Homo sapiens, UniProt P15056, V600E); settings: BRAF(V600E); read-out: % Inhibition @ 100 nM
468 kinases [25] = biological target: 468 kinases (Homo sapiens, UniProt Q6XUX3); settings: RIPK5; read-out: % Inhibition @ 100 nM
468 kinases [26] = biological target: 468 kinases (Homo sapiens, UniProt Q96NX5); settings: CAMK1G; read-out: % Inhibition @ 100 nM
468 kinases [27] = biological target: 468 kinases (Homo sapiens, UniProt Q9P289); settings: MST4; read-out: % Inhibition @ 100 nM
468 kinases [28] = biological target: 468 kinases (Homo sapiens, UniProt Q9NYL2); settings: ZAK; read-out: % Inhibition @ 100 nM
468 kinases [29] = biological target: 468 kinases (Homo sapiens, UniProt Q9P0L2); settings: MARK1; read-out: % Inhibition @ 100 nM
468 kinases [30] = biological target: 468 kinases (Homo sapiens, UniProt P54753); settings: EPHB3; read-out: % Inhibition @ 100 nM
468 kinases [31] = biological target: 468 kinases (Homo sapiens, UniProt Q14289); settings: PYK2; read-out: % Inhibition @ 100 nM
468 kinases [32] = biological target: 468 kinases (Homo sapiens, UniProt Q99759); settings: MAP3K3; read-out: % Inhibition @ 100 nM
468 kinases [33] = biological target: 468 kinases (Homo sapiens, UniProt Q14164); settings: IKK-epsilon; read-out: % Inhibition @ 100 nM

Question: With `CCN(CC)CCNC(=O)c1c(C)[nH]c(/C=C2\C(=O)Nc3ccc(CCO)cc32)c1C` [Compound No. 10, (Z)—N-(2-(Diethylamino)ethyl)-5-((5-(2-hydroxyethyl)-2-oxoindolin-3-ylidene)methyl)-2,4-dimethyl-1H-pyrrole-3-carboxamide] as the compound, how does the inhibition at 0.1 µM (468 kinases [1]) read?
Answer: 0%

Question: And the inhibition at 0.1 µM (468 kinases [2])?
Answer: 96.5%

Question: What about the inhibition at 0.1 µM (468 kinases [3]) of the same compound?
Answer: 86%

Question: What about the inhibition at 0.1 µM (468 kinases [4]) of the same compound?
Answer: 8%

Question: And the inhibition at 0.1 µM (468 kinases [5])?
Answer: 1%

Question: And the inhibition at 0.1 µM (468 kinases [6])?
Answer: 0%

Question: And the inhibition at 0.1 µM (468 kinases [7])?
Answer: 2%

Question: And the inhibition at 0.1 µM (468 kinases [8])?
Answer: 37%

Question: And the inhibition at 0.1 µM (468 kinases [9])?
Answer: 12%

Question: And the inhibition at 0.1 µM (468 kinases [10])?
Answer: 59%

Question: And the inhibition at 0.1 µM (468 kinases [11])?
Answer: 6%

Question: And the inhibition at 0.1 µM (468 kinases [12])?
Answer: 3%

Question: What about the inhibition at 0.1 µM (468 kinases [13]) of the same compound?
Answer: 8%

Question: What about the inhibition at 0.1 µM (468 kinases [14]) of the same compound?
Answer: 22%

Question: What about the inhibition at 0.1 µM (468 kinases [15]) of the same compound?
Answer: 22%

Question: What about the inhibition at 0.1 µM (468 kinases [16]) of the same compound?
Answer: 0%

Question: And the inhibition at 0.1 µM (468 kinases [17])?
Answer: 0%

Question: What about the inhibition at 0.1 µM (468 kinases [18]) of the same compound?
Answer: 91.7%

Question: What about the inhibition at 0.1 µM (468 kinases [19]) of the same compound?
Answer: 0%

Question: What about the inhibition at 0.1 µM (468 kinases [20]) of the same compound?
Answer: 19%

Question: What about the inhibition at 0.1 µM (468 kinases [21]) of the same compound?
Answer: 19%

Question: And the inhibition at 0.1 µM (468 kinases [22])?
Answer: 8%

Question: What about the inhibition at 0.1 µM (468 kinases [23]) of the same compound?
Answer: 0%

Question: And the inhibition at 0.1 µM (468 kinases [24])?
Answer: 3%

Question: What about the inhibition at 0.1 µM (468 kinases [25]) of the same compound?
Answer: 0%

Question: And the inhibition at 0.1 µM (468 kinases [26])?
Answer: 0%

Question: What about the inhibition at 0.1 µM (468 kinases [27]) of the same compound?
Answer: 0%

Question: And the inhibition at 0.1 µM (468 kinases [28])?
Answer: 10%

Question: And the inhibition at 0.1 µM (468 kinases [29])?
Answer: 39%

Question: And the inhibition at 0.1 µM (468 kinases [30])?
Answer: 0%

Question: And the inhibition at 0.1 µM (468 kinases [31])?
Answer: 31%

Question: And the inhibition at 0.1 µM (468 kinases [32])?
Answer: 59%

Question: And the inhibition at 0.1 µM (468 kinases [33])?
Answer: 68%

Question: With `CCN(CC)CCNC(=O)c1c(C)[nH]c(/C=C2\C(=O)Nc3ccc(CCC(N)=O)cc32)c1C` [Compound No. 16, (Z)-5-((5-(3-Amino-3-oxopropyl)-2-oxoindolin-3-ylidene)methyl)-N-(2-(diethylamino)ethyl)-2,4-dimethyl-1H-pyrrole-3-carboxamide] as the compound, how does the inhibition at 0.1 µM (468 kinases [1]) read?
Answer: 9%

Question: And the inhibition at 0.1 µM (468 kinases [2])?
Answer: 94%

Question: What about the inhibition at 0.1 µM (468 kinases [3]) of the same compound?
Answer: 88%

Question: And the inhibition at 0.1 µM (468 kinases [4])?
Answer: 0%

Question: What about the inhibition at 0.1 µM (468 kinases [5]) of the same compound?
Answer: 0%

Question: What about the inhibition at 0.1 µM (468 kinases [6]) of the same compound?
Answer: 3%

Question: And the inhibition at 0.1 µM (468 kinases [7])?
Answer: 29%

Question: And the inhibition at 0.1 µM (468 kinases [8])?
Answer: 16%

Question: And the inhibition at 0.1 µM (468 kinases [9])?
Answer: 24%

Question: And the inhibition at 0.1 µM (468 kinases [10])?
Answer: 37%

Question: And the inhibition at 0.1 µM (468 kinases [11])?
Answer: 40%

Question: And the inhibition at 0.1 µM (468 kinases [12])?
Answer: 0%

Question: What about the inhibition at 0.1 µM (468 kinases [13]) of the same compound?
Answer: 6%

Question: And the inhibition at 0.1 µM (468 kinases [14])?
Answer: 0%

Question: And the inhibition at 0.1 µM (468 kinases [15])?
Answer: 53%

Question: What about the inhibition at 0.1 µM (468 kinases [16]) of the same compound?
Answer: 0%

Question: And the inhibition at 0.1 µM (468 kinases [17])?
Answer: 0%

Question: And the inhibition at 0.1 µM (468 kinases [18])?
Answer: 92.9%

Question: And the inhibition at 0.1 µM (468 kinases [19])?
Answer: 5%

Question: What about the inhibition at 0.1 µM (468 kinases [20]) of the same compound?
Answer: 4%

Question: And the inhibition at 0.1 µM (468 kinases [21])?
Answer: 34%

Question: And the inhibition at 0.1 µM (468 kinases [22])?
Answer: 8%

Question: What about the inhibition at 0.1 µM (468 kinases [23]) of the same compound?
Answer: 0%

Question: What about the inhibition at 0.1 µM (468 kinases [24]) of the same compound?
Answer: 0%

Question: And the inhibition at 0.1 µM (468 kinases [25])?
Answer: 3%

Question: And the inhibition at 0.1 µM (468 kinases [26])?
Answer: 37%

Question: What about the inhibition at 0.1 µM (468 kinases [27]) of the same compound?
Answer: 37%

Question: And the inhibition at 0.1 µM (468 kinases [28])?
Answer: 10%

Question: And the inhibition at 0.1 µM (468 kinases [29])?
Answer: 13%

Question: What about the inhibition at 0.1 µM (468 kinases [30]) of the same compound?
Answer: 0%

Question: And the inhibition at 0.1 µM (468 kinases [31])?
Answer: 7%

Question: What about the inhibition at 0.1 µM (468 kinases [32]) of the same compound?
Answer: 48%

Question: And the inhibition at 0.1 µM (468 kinases [33])?
Answer: 44%
